# Source: patent US12653191B2, “Active compound combinations” (Bayer Aktiengesellschaft, priority 2020, dated 2026)
# Values joined by “and” are separate entries in the source; they are usually repeats but may differ in a detail not shown here. Equal entries are not always repeated. Where two headings read alike, the source gives them in different places.
# Experiments:
# Alternaria alternate = test: in vitro-Test with fungal microorganisms, Method A (tables A1-A12); type: cell-based, Alternaria alternata; settings: applied alone
# Procedure: (§1) Example: In Vitro-Test with Fungal Microorganisms
# (§2) Wells of 96-well microtiter plates are filled with 10 μl of a preparation of test compound or compound combination in methanol+emulsifier alkylaryl-polyglycol-ether. Thereafter, the solvent is evaporated in a hood. At the next step, 100 μl of liquid potato dextrose medium is given into each well, that has been amended with an appropriate concentration of spores or mycelium suspension of the test fungus.
# (§3) With the aid of a photometer, the extinction in all wells is measured at the wavelength of 620 nm.
# (§4) The microtiter plates are incubated at 20° C. and 85% relative humidity. The inhibition of growth is determined again photometrically 3-5 days after the application. Efficacy is calculated in relation to the untreated control, 0% efficacy means fungal growth as high as in untreated control while 100% efficacy means no fungal growth is measured.
# (§5) The data in tables A1 to A12, B1 to B14, C1 to C10, D1 to D8, E1 to E8, F1 to F11, G1 to G4, H1 to H4 and I1 to I5 were collected according to Method A. The data in tables A13 to A22, B15 to B18, C11 to C20, E9 to E16, F12 to F15, G5 to G15, H5 to H8, I6 to I11 and J1 to J11 were collected according to Method B.
# Alternaria alternata = test: in vitro-Test with fungal microorganisms, Method B (tables A13-A22); type: cell-based; settings: single compound
# Procedure: as §1
# as §2, with “30” for “10”, “200” for “100”, “growth” for “potato dextrose”, “given,” for “given into each well,”
# (§6) With the aid of a photometer, the extinction in all wells is measured at the wavelength of 600 nm.
# (§7) The microtiter plates are incubated for 3 to 7 days at 20° C. and 85% relative humidity. After the incubation inhibition of growth is determined photometrically. Efficacy is calculated in relation to the untreated control, 0% efficacy means fungal growth as high as in untreated control while 100% efficacy means no fungal growth is measured.
# as §5
# Botrytis cinerea [1] = test: in vitro-Test with fungal microorganisms, Method A (tables B1-B14); type: cell-based
# Procedure: as §1, §2, §3, §4, §5
# Botrytis cinerea [2] = test: in vitro-Test with fungal microorganisms, Method B (tables B15-B18); type: cell-based
# Procedure: as §1
# as §2, with “30” for “10”, “200” for “100”, “growth” for “potato dextrose”, “given,” for “given into each well,”
# as §6, §7, §5
# Cercospora beticola [3] = test: in vitro-Test with fungal microorganisms, Method A (tables C1-C10); type: cell-based
# Procedure: as §1, §2, §3, §4, §5
# Cercospora beticola [4] = test: in vitro-Test with fungal microorganisms, Method B (tables C11-C20); type: cell-based
# Procedure: as §1
# as §2, with “30” for “10”, “200” for “100”, “growth” for “potato dextrose”, “given,” for “given into each well,”
# as §6, §7, §5
# [5] = system: Colletotrichum lindemuthianum; test: in vitro-Test with fungal microorganisms, Method A (tables D1-D8); type: cell-based
# Procedure: as §1, §2, §3, §4, §5
# Cordana musae [6] = test: in vitro-Test with fungal microorganisms, Method A (tables E1-E8); type: cell-based
# Procedure: as §1, §2, §3, §4, §5
# Cordana musae [7] = test: in vitro-Test with fungal microorganisms, Method B (tables E9-E16); type: cell-based; settings: for Efficacy: single active; for Efficacy %: single substance
# Procedure: as §1
# as §2, with “30” for “10”, “200” for “100”, “growth” for “potato dextrose”, “given,” for “given into each well,”
# as §6, §7, §5
# Diaporthe citri = test: in vitro-Test with fungal microorganisms, Method A (tables F1-F11); type: cell-based; settings: applied alone
# Procedure: as §1, §2, §3, §4, §5
# Fusarium culmorum [8] = test: in vitro-Test with fungal microorganisms, Method B (tables G5-G15); type: cell-based
# Procedure: as §1
# as §2, with “30” for “10”, “200” for “100”, “growth” for “potato dextrose”, “given,” for “given into each well,”
# as §6, §7, §5
# [9] = system: Ustilago segetum var. avenae; test: in vitro-Test with fungal microorganisms, Method A (tables I1-I5); type: cell-based; settings: alone
# Procedure: as §1, §2, §3, §4, §5
# [10] = system: Ustilago segetum var. avenae; test: in vitro-Test with fungal microorganisms, Method B (tables I6-I11); type: cell-based
# Procedure: as §1
# as §2, with “30” for “10”, “200” for “100”, “growth” for “potato dextrose”, “given,” for “given into each well,”
# as §6, §7, §5
# Colletotrichum coccodes = test: in vitro-Test with fungal microorganisms, Method B (tables J1-J11); type: cell-based
# Procedure: as §1
# as §2, with “30” for “10”, “200” for “100”, “growth” for “potato dextrose”, “given,” for “given into each well,”
# as §6, §7, §5
# Fusarium culmorum [11] = test: in vitro-Test with fungal microorganisms, Method A (tables G1-G4); type: cell-based; settings: alone
# Procedure: as §1, §2, §3, §4, §5
# [12] = single active compound, 0.04 ppm
# [13] = single active compound, 0.2 ppm
# [14] = Botrytis cinerea, read-out: Efficacy
# [15] = Botrytis cinerea, alone, read-out: Efficacy %
smiles,measurement,setting,value
"Cn1cc(C(=O)Nc2ccc(F)cc2-c2ccc(Cl)c(Cl)c2)c(C(F)F)n1 [(2.002) bixafen, bixafen]",Efficacy %,Alternaria alternate; 0.008 ppm,29%
same,Efficacy %,Alternaria alternate; 0.04 ppm,23%
same,Efficacy %,Alternaria alternate; 0.2 ppm,66%
same,Efficacy %,Alternaria alternate; 1.0 ppm,46%
same,Efficacy,Alternaria alternata; 0.008 ppm,13% and 23%
same,Efficacy,Alternaria alternata; 0.04 ppm,67%
same,Efficacy,Alternaria alternata; 1 ppm,59% and 85%
same,Efficacy,Botrytis cinerea [1]; 0.04 ppm,22%
same,Efficacy,Botrytis cinerea [1]; 0.2 ppm,63%
same,Efficacy,Botrytis cinerea [1]; 1.0 ppm,67%
same,Efficacy %,"Botrytis cinerea [2]; alone, 0.008 ppm",6%
same,Efficacy %,"Botrytis cinerea [2]; alone, 0.2 ppm",0%
same,Efficacy %,"Botrytis cinerea [2]; alone, 1 ppm",66%
same,Efficacy %,Cercospora beticola [3]; 0.2 ppm,0%
same,Efficacy %,Cercospora beticola [3]; 1.0 ppm,0%
same,Efficacy %,Cercospora beticola [4]; 1 ppm,0%
same,Efficacy %,"Cercospora beticola [4]; single compound, 0.2 ppm",14%
same,Efficacy %,"Cercospora beticola [4]; single compound, 1 ppm",20%
same,Efficacy %,[5]; single active at 0.008 ppm,6% and 0%
same,Efficacy %,[5]; single active at 0.04 ppm,0%
same,Efficacy %,[5]; single active at 0.2 ppm,0%
same,Efficacy %,"Cordana musae [6]; single substance, 0.008 ppm",0% and 8%
same,Efficacy %,"Cordana musae [6]; single substance, 0.04 ppm",2% and 0%
same,Efficacy %,"Cordana musae [6]; single substance, 0.2 ppm",0%
same,Efficacy %,"Cordana musae [6]; single substance, 1.0 ppm",0%
same,Efficacy,Cordana musae [7]; 0.008 ppm,17%
same,Efficacy,Cordana musae [7]; 0.04 ppm,0%
same,Efficacy,Cordana musae [7]; 0.2 ppm,0%
same,Efficacy,Cordana musae [7]; 1 ppm,2%
same,Efficacy %,Cordana musae [7]; 0.008 ppm,0%
same,Efficacy %,Cordana musae [7]; 0.04 ppm,0%
same,Efficacy %,Cordana musae [7]; 0.2 ppm,0%
same,Efficacy,Diaporthe citri; 0.2 ppm,0% and 5%
same,Efficacy,Diaporthe citri; 1.0 ppm,0% and 5%
same,Efficacy,Fusarium culmorum [8]; 0.008 ppm alone,2%
same,Efficacy,Fusarium culmorum [8]; 0.04 ppm alone,17%
same,Efficacy,"Fusarium culmorum [8]; single active compound, 0.008 ppm",2%
same,Efficacy,Fusarium culmorum [8]; [12],7%
same,Efficacy,Fusarium culmorum [8]; [13],11%
same,Efficacy,"Fusarium culmorum [8]; single active compound, 1 ppm",18%
same,Efficacy %,[9]; 0.008 ppm,0%
same,Efficacy %,[9]; 0.04 ppm,0%
same,Efficacy %,[9]; 0.2 ppm,100%
same,Efficacy %,[9]; 1.0 ppm,100%
same,Efficacy %,[10]; 0.2 ppm,44%
same,Efficacy %,Colletotrichum coccodes; 0.008 ppm,33%
same,Efficacy %,Colletotrichum coccodes; 0.04 ppm,45%
same,Efficacy %,Colletotrichum coccodes; 0.2 ppm,0%
same,Efficacy %,Colletotrichum coccodes; 1 ppm,0%
same,Efficacy %,Colletotrichum coccodes; single active compound at 0.008 ppm,30%
"CC(C)c1ccc(Cl)cc1CN(C(=O)c1c(C(F)F)nn(C)c1F)C1CC1 [(2.038) isoflucypram, isoflucypram]",Efficacy %,Alternaria alternate; 0.008 ppm,43% and 52%
same,Efficacy %,Alternaria alternate; 0.04 ppm,70% and 71% and 74%
same,Efficacy %,Alternaria alternate; 0.2 ppm,77% and 85% and 83%
same,Efficacy %,Alternaria alternate; 1.0 ppm,82% and 84%
same,Efficacy,Alternaria alternata; 0.008 ppm,22%
same,Efficacy,Alternaria alternata; 1 ppm,77%
same,Efficacy,Botrytis cinerea [1]; 1.0 ppm,75%
same,Efficacy %,"Botrytis cinerea [1]; alone, 0.008 ppm",5%
same,Efficacy %,"Botrytis cinerea [1]; alone, 0.04 ppm",53%
same,Efficacy %,"Botrytis cinerea [1]; alone, 0.2 ppm",58%
same,Efficacy %,"Botrytis cinerea [1]; alone, 1.0 ppm",77%
same,Efficacy %,Botrytis cinerea [2]; 0.2 ppm alone,53%
same,Efficacy %,Botrytis cinerea [2]; 1 ppm alone,70%
same,Efficacy %,Cercospora beticola [3]; 0.008 ppm alone,10%
same,Efficacy %,Cercospora beticola [3]; 0.04 ppm alone,0%
same,Efficacy %,Cercospora beticola [3]; 0.2 ppm alone,44%
same,Efficacy %,Cercospora beticola [3]; 1.0 ppm alone,69%
same,Efficacy %,Cercospora beticola [4]; 0.008 ppm,8%
same,Efficacy %,Cercospora beticola [4]; 0.04 ppm,14%
same,Efficacy %,Cercospora beticola [4]; 0.2 ppm,16%
same,Efficacy %,Cercospora beticola [4]; 1 ppm,44%
same,Efficacy %,"Cercospora beticola [4]; single compound, 0.04 ppm",14% and 13%
same,Efficacy %,"Cercospora beticola [4]; single compound, 1 ppm",40% and 35%
same,Efficacy %,[5]; single active at 0.008 ppm,0%
same,Efficacy %,[5]; single active at 0.04 ppm,14%
same,Efficacy %,[5]; single active at 0.2 ppm,0%
same,Efficacy %,[5]; single active at 1.0 ppm,18%
same,Efficacy %,"Cordana musae [6]; mixing partner alone, 0.008 ppm",0%
same,Efficacy %,"Cordana musae [6]; mixing partner alone, 0.04 ppm",0%
same,Efficacy %,"Cordana musae [6]; mixing partner alone, 0.2 ppm",0%
same,Efficacy %,"Cordana musae [6]; mixing partner alone, 1.0 ppm",0%
same,Efficacy %,"Cordana musae [6]; single substance, 0.008 ppm",0%
same,Efficacy %,"Cordana musae [6]; single substance, 0.04 ppm",0%
same,Efficacy %,"Cordana musae [6]; single substance, 0.2 ppm",0% and 1%
same,Efficacy %,"Cordana musae [6]; single substance, 1.0 ppm",22% and 27%
same,Efficacy,Cordana musae [7]; 0.2 ppm,9%
same,Efficacy,Cordana musae [7]; 1 ppm,20%
same,Efficacy,Diaporthe citri; 0.008 ppm,0%
same,Efficacy,Diaporthe citri; 0.04 ppm,0%
same,Efficacy,Diaporthe citri; 1.0 ppm,30% and 38%
same,Efficacy,Fusarium culmorum [8]; 0.008 ppm alone,0%
same,Efficacy,Fusarium culmorum [8]; 0.04 ppm alone,0%
same,Efficacy,Fusarium culmorum [8]; 0.2 ppm alone,10%
same,Efficacy,Fusarium culmorum [8]; 1 ppm alone,24%
same,Efficacy,Fusarium culmorum [8]; [12],10%
same,Efficacy,Fusarium culmorum [8]; [13],19% and 20%
same,Efficacy %,[9]; 0.008 ppm,6% and 0%
same,Efficacy %,[9]; 0.2 ppm,100%
same,Efficacy %,[9]; 1.0 ppm,100%
same,Efficacy %,[10]; 0.008 ppm,9%
same,Efficacy %,[10]; 0.04 ppm,17%
same,Efficacy %,[10]; 0.2 ppm,100%
same,Efficacy %,"[10]; alone, 0.008 ppm",2%
same,Efficacy %,"[10]; alone, 0.04 ppm",5%
same,Efficacy %,"[10]; alone, 0.2 ppm",100%
same,Efficacy %,Colletotrichum coccodes; 0.008 ppm,0%
same,Efficacy %,Colletotrichum coccodes; 0.04 ppm,46%
same,Efficacy %,Colletotrichum coccodes; 0.2 ppm,8%
same,Efficacy %,Colletotrichum coccodes; 1 ppm,0%
same,Efficacy %,Colletotrichum coccodes; single active compound at 0.04 ppm,0% and 1%
"CCN(C)C=Nc1cc(C)c(Oc2ccccc2F)cc1Cl [(15.064), N′-[2-chloro-4-(2-fluorophenoxy)-5-methylphenyl]-N-ethyl-N-methylimidoformamide]",inhibition of growth at 0.08 ppm,"Alternaria alternate; Alternaria, 0.08 ppm, read-out: Efficacy %",2%
same,inhibition of growth at 0.4 ppm,"Alternaria alternate; Alternaria, 0.4 ppm, read-out: Efficacy %",5%
same,inhibition of growth at 2 ppm,"Alternaria alternate; Alternaria, 2.0 ppm, read-out: Efficacy %",12%
same,inhibition of growth at 10 ppm,"Alternaria alternate; Alternaria, 10.0 ppm, read-out: Efficacy %",50%
same,inhibition of growth at 0.08 ppm,Botrytis cinerea [1]; [14],5%
same,inhibition of growth at 0.4 ppm,"Botrytis cinerea [1]; Botrytis cinerea, 0.4 ppm, read-out: Efficacy",21%
same,inhibition of growth at 2 ppm,Botrytis cinerea [1]; [14],2%
same,inhibition of growth at 0.08 ppm,Botrytis cinerea [1]; [15],9%
same,inhibition of growth at 2 ppm,Botrytis cinerea [1]; [15],5%
same,inhibition of growth at 0.08 ppm,"[5]; Colletotrichum lindemuthianum, mixing partner alone, 0.08 ppm, read-out: Efficacy %",16%
same,inhibition of growth at 0.4 ppm,"[5]; Colletotrichum lindemuthianum, mixing partner alone, 0.4 ppm, read-out: Efficacy %",0%
same,inhibition of growth at 2 ppm,"[5]; Colletotrichum lindemuthianum, mixing partner alone, 2.0 ppm, read-out: Efficacy %",0%
same,inhibition of growth at 0.4 ppm,"Cordana musae [6]; Neocordana musae, mixing partner alone, 0.4 ppm, read-out: Efficacy %",0%
same,inhibition of growth at 2 ppm,"Cordana musae [6]; Neocordana musae, mixing partner alone, 2.0 ppm, read-out: Efficacy %",0%
same,inhibition of growth at 10 ppm,"Cordana musae [6]; Neocordana musae, mixing partner alone, 10.0 ppm, read-out: Efficacy %",27%
same,inhibition of growth at 2 ppm,"Diaporthe citri; Diaporthe citri, 2.0 ppm, read-out: Efficacy",0%
same,inhibition of growth at 10 ppm,"Diaporthe citri; Diaporthe citri, 10.0 ppm, read-out: Efficacy",0%
same,inhibition of growth at 2 ppm,"Fusarium culmorum [11]; Fusarium culmorum, 2.0 ppm, read-out: Efficacy",0%
same,inhibition of growth at 10 ppm,"Fusarium culmorum [11]; Fusarium culmorum, 10.0 ppm, read-out: Efficacy",1%
CCO[PH](=O)[O-].CCO[PH](=O)[O-].CCO[PH](=O)[O-].[Al+3] [fosetylaluminium],Efficacy,Fusarium culmorum [11]; 0.8 ppm,7%
same,Efficacy,Fusarium culmorum [11]; 4.0 ppm,0%
same,Efficacy,Fusarium culmorum [11]; 20.0 ppm,5%
same,Efficacy,Fusarium culmorum [11]; 100.0 ppm,9%
